Columns and labels:
[1] = biological target: T1, Aromatase (Homo sapiens, UniProt P11511)
T1 sequence (P11511 whole entry): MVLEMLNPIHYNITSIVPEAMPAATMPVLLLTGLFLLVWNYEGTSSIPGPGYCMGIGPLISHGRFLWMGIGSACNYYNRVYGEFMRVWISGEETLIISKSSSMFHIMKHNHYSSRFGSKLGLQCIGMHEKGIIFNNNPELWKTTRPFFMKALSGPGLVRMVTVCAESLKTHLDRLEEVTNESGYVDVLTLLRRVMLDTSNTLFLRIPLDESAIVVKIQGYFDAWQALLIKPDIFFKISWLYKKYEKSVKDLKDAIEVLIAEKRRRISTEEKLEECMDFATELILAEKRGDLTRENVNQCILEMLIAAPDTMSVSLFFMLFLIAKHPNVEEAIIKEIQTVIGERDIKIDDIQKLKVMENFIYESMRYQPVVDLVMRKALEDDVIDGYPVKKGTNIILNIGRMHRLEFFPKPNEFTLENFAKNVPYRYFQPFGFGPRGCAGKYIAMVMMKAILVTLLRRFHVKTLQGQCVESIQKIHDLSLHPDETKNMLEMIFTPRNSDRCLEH
Description: Inhibition of Cytochrome P450 19A1 in human placenta

[2] = Compound was evaluated for the spectral dissociation constant; format: ADME; conditions: read-out: Ks

Structure (SMILES) | IC50 [1] | Kd [2]
CCCCCC[C@]1(c2ccncc2)CCC(=O)NC1=O | 3.6 µM | 
CCCCC[C@]1(c2ccncc2)CCC(=O)NC1=O | 2.5 µM | 
CCCCCCC[C@]1(c2ccncc2)CCC(=O)NC1=O | 3.2 µM | 
CCCCCCCCN1C(=O)CCC(CC)(c2ccncc2)C1=O (centres undefined) |  | 0.51 µM

Source: ChEMBL document CHEMBL1125058 (J Med Chem, 1990)
